Here are results for nine compounds from ChEMBL document CHEMBL1201862, “PubChem BioAssay data set” (2004).

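Five compound concentrations were applied to cells in 96-well plates for 48 hours; endpoints were derived by simple linear interpolation of the resulting dose-response curve. GI50 = concentration required for 50% inhibition of growth.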 Calls of active or inactive are those of the source. Cut-off read from the data, not from the text of the source: active = GI50 up to about 1.1 µM and inactive = higher.

Some test systems named below: NCI-H226; HOP-92; A549; SW-620; M19-MEL; HT-29; HCT-116; DMS-114; SN12C; SR; SNB-75; HL-60; DLD-1; NCI-H522; Malme-3M; UO-31; HCC 2998; SK-MEL-2.
Test in all cases: DTP human tumour cell line panel, 48 h

`COc1ccc(/C(=C\c2cc(OC)c(OC)c(OC)c2)C(=O)O)cc1`: the GI50 – broadly, the concentration giving 50% growth inhibition – was 28.1 µM (inactive) with NCI-H226; 33.8 µM (inactive) with HOP-92; 40.1 µM (inactive) in the assay with A549; 35 µM (inactive) in the assay on SW-620; 52 µM (inactive) in the assay on M19-MEL; 35.6 µM (inactive) in the assay with HT-29. The GI50 in the assay on HCT-116 was 29 µM (inactive); in the assay on DMS-114 it was 25.2 µM (inactive); in the assay on SN12C, 37.9 µM (inactive); in the assay on SR it was 38.8 µM (inactive); in the assay with SNB-75 it was 25.6 µM (inactive); with HL-60 it was 21.3 µM (inactive). Besides, the GI50 in the assay on DLD-1 was 40.1 µM (inactive); in the assay with NCI-H522 it was 21 µM (inactive); with Malme-3M it was 55.3 µM (inactive); in the assay on UO-31, 25.6 µM (inactive).
`O=C1OCC2C1C1c3ccccc3C(O)c3ccccc3C21` (stereo not drawn): the GI50 with NCI-H226, in the assay on HOP-92, with A549, in the assay with SW-620, in the assay with M19-MEL and with HT-29 was > 100 µM (inactive) throughout. The GI50 in the assay with HCT-116, in the assay on DMS-114, in the assay with SN12C, with SR, with SNB-75 and in the assay with HL-60 was > 100 µM (inactive) throughout. For the same compound, the GI50 in the assay on DLD-1, with HCC 2998, with Malme-3M, with UO-31 and with SK-MEL-2 was > 100 µM (inactive) throughout.
In the case of `COc1ccc(C(=O)O)c(Cc2ccc3ccccc3c2)c1`, the GI50 with NCI-H226, in the assay on HOP-92, in the assay on A549, with SW-620, in the assay with M19-MEL and in the assay with HT-29 was > 100 µM (inactive) throughout. Besides, the GI50 in the assay with HCT-116, with DMS-114, in the assay with SN12C, with SR, in the assay on SNB-75 and in the assay with HL-60 was > 100 µM (inactive) throughout. The GI50 in the assay with DLD-1, in the assay on NCI-H522, in the assay on Malme-3M, in the assay on UO-31 and with SK-MEL-2 was > 100 µM (inactive) throughout.
Take `COc1ccc2c(c1)CC1c3c(ccc(OC)c3O)CC2N1C` (stereo not drawn): the GI50 in the assay on NCI-H226 was 86.1 µM (inactive); in the assay on HOP-92, 28.1 µM (inactive); with A549, 57.3 µM (inactive); in the assay with SW-620 it was 21.5 µM (inactive); in the assay with M19-MEL, 23 µM (inactive); in the assay on HT-29, 22.9 µM (inactive). The GI50 in the assay with HCT-116 was 19.6 µM (inactive); in the assay with DMS-114, 19.7 µM (inactive); in the assay with SN12C it was 43 µM (inactive); in the assay on SR, 15.3 µM (inactive); in the assay on SNB-75 it was 38.3 µM (inactive); in the assay with HL-60, 16.2 µM (inactive). The GI50 with DLD-1 was 68.5 µM (inactive); in the assay on NCI-H522 it was 19.7 µM (inactive); with HCC 2998 it was 16.8 µM (inactive); with Malme-3M, 15.7 µM (inactive); in the assay on UO-31, 30.8 µM (inactive); in the assay on SK-MEL-2, 19.2 µM (inactive).
On to `CC1(C)OC2OC(/C=C/[N+](=O)[O-])C3OC(C)(C)OC3C2O1` (stereo not drawn), for which the GI50 in the assay on NCI-H226 is 20.5 µM (inactive); in the assay with HOP-92 it was 8.43 µM (inactive); in the assay with A549, 20.3 µM (inactive); in the assay with SW-620, 3.27 µM (inactive); in the assay on M19-MEL it was 14.2 µM (inactive); in the assay on HT-29, 17.2 µM (inactive). The GI50 in the assay with HCT-116 is 9.06 µM (inactive); with DMS-114, 18.6 µM (inactive); with SN12C, 15.6 µM (inactive); in the assay on SR it was 6.7 µM (inactive); in the assay with SNB-75, 20.2 µM (inactive); in the assay with HL-60 it was 2.94 µM (inactive). Besides, the GI50 with DLD-1 is 1.61 µM (inactive); with NCI-H522, 1.77 µM (inactive); with HCC 2998, 16.8 µM (inactive); with Malme-3M, 5.35 µM (inactive); in the assay with UO-31, 20.4 µM (inactive); in the assay with SK-MEL-2, 18.2 µM (inactive).
On to `CCCCCCCCCCCCCP(=O)(O)O`, for which the GI50 with NCI-H226, with HOP-92, with A549, in the assay with SW-620, in the assay on M19-MEL and in the assay on HT-29 was > 100 µM (inactive) throughout. Also, the GI50 is > 100 µM (inactive) with HCT-116; > 100 µM (inactive) with DMS-114; > 100 µM (inactive) in the assay on SN12C; 23.2 µM (inactive) in the assay with SNB-75; > 100 µM (inactive) in the assay on HL-60; > 100 µM (inactive) in the assay with DLD-1. Moreover, the GI50 in the assay on NCI-H522, in the assay with HCC 2998, in the assay on Malme-3M, in the assay on UO-31 and with SK-MEL-2 was > 100 µM (inactive) each time.
As to `CCN(CC)CCN(C)CC(C)(C)C(=O)/C=C/c1ccccc1`, the GI50 in the assay on NCI-H226 is 17.1 µM (inactive); with HOP-92, 3.99 µM (inactive); in the assay with A549, 16.4 µM (inactive); with SW-620, 11.5 µM (inactive); in the assay with M19-MEL, 11.6 µM (inactive); in the assay with HT-29 it was 11.2 µM (inactive). The GI50 in the assay on DMS-114 is 6.58 µM (inactive); in the assay with SN12C, 10 µM (inactive); in the assay with SR, 10.5 µM (inactive); in the assay on SNB-75, 4.36 µM (inactive); in the assay on HL-60 it was 6.22 µM (inactive); in the assay with DLD-1 it was 5.46 µM (inactive). Further, the GI50 with NCI-H522 is 9.77 µM (inactive); in the assay on HCC 2998 it was 14.5 µM (inactive); in the assay on Malme-3M, 13.4 µM (inactive); in the assay with UO-31, 13.4 µM (inactive); with SK-MEL-2, 11.7 µM (inactive).
For `NNC(=S)N/N=C/C(=C/Nc1ccccc1)[N+](=O)[O-]`, the GI50 in the assay with NCI-H226, in the assay with HOP-92, in the assay with A549, in the assay on SW-620, in the assay on M19-MEL and in the assay with HT-29 was > 100 µM (inactive) each time. The GI50 in the assay on HCT-116 is > 100 µM (inactive); with DMS-114, > 100 µM (inactive); in the assay on SN12C it was > 100 µM (inactive); in the assay with SR it was 1 µM (active); in the assay on SNB-75, > 100 µM (inactive); in the assay on HL-60, > 100 µM (inactive). The GI50 with DLD-1, in the assay with NCI-H522, with HCC 2998, in the assay on Malme-3M and with SK-MEL-2 was > 100 µM (inactive) throughout.
With `Cc1cccc(C2=NC(C)(C)C(C)(C)N=C2c2cccc(C)n2)n1`, the GI50 in the assay with NCI-H226 was > 100 µM (inactive); in the assay on HOP-92, > 100 µM (inactive); with A549, > 100 µM (inactive); with SW-620, > 100 µM (inactive); in the assay with M19-MEL, > 100 µM (inactive); in the assay with HT-29, 26.1 µM (inactive). Also, the GI50 is 35.4 µM (inactive) with HCT-116; 30.8 µM (inactive) in the assay with DMS-114; > 100 µM (inactive) with SNB-75; 53.6 µM (inactive) with HL-60; 98.6 µM (inactive) in the assay with DLD-1; > 100 µM (inactive) with NCI-H522. In addition, the GI50 in the assay on HCC 2998, with Malme-3M, with UO-31 and in the assay on SK-MEL-2 was > 100 µM (inactive) in each case.
